# Experimental data published in patent US7018796B2, “Preincubation assay methods” (Shionogi & Co., Ltd., priority 2000, dated 2006).
# Legend:
# [1] = target: T1, HCV RNA-dependent RNA polymerase (Hepatitis C virus genotype 1a, UniProt P27958); experiment: DIG-UTP assay without radioisotope-labeled substrate, without pre-incubation (Example 2); format: biochemical; conditions: no pre-incubation, I-1 0.5 μg/ml, 3′-dUTP 0.7 μM, A 100 μg/ml, B 50 μg/ml, C 25 μg/ml
# T1 construct: HCV RNA-dependent RNA polymerase is encoded in the NS5B (nonstructural protein 5B) region of HCV; made in house; host or cells: insect cells or E. coli
# T1 sequence (P27958 2421-3011): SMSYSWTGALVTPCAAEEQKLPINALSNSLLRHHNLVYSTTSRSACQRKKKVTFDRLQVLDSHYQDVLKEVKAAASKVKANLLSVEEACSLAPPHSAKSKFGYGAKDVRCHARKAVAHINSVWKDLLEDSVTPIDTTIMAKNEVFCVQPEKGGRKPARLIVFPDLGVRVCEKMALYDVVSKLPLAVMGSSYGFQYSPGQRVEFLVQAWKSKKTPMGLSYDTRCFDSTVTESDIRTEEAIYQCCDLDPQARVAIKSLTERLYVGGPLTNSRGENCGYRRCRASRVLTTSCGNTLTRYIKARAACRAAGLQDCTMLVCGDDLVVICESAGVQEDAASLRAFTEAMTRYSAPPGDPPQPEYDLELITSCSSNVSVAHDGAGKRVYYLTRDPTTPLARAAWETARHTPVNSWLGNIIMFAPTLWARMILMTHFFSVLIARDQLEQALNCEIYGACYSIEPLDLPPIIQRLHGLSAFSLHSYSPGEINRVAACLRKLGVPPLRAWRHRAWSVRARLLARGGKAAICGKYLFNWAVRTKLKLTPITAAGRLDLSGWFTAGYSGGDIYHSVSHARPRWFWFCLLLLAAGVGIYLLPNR
# Procedure: After mixing by a plate mixer, the solution was pre-incubated at 25° C. for 1 hr. • 10) On the other hand, the buffer I (10 μl) was transferred into another tube, and UTP (1 μM, 10 μl), DIG-UTP (300 μM, 1 μl), water (24 μl) and a test compound dissolved with dimethyl sulfoxide or water (5 μl) were added to the tube and mixed calmly. Concentrations of the compounds used were as follows.
# • 11) The mixed solution (50 μl/well) described in 10) was transferred into each well after the pre-incubation described in 9), mixed by a plate mixer and then incubated at 25° C. for 1 hr. • 12) When the enzyme reaction was in 1 hr, the enzyme reaction was stopped by adding ethylenediaminetetraacetic acid (0.1 M, 50 μl/well). • 13) The plate was washed twice with PBS (200 μl/well) after end of the enzyme reaction. • 14) Next, alkaline phosphatase-labeled anti-DIG antibody (3 U/ml, 100 μl/well) diluted 250-fold with PBS containing skim milk (0.5%) was transferred each well. After mixing by a plate mixer, immuno-reaction was performed at 25° C. for 1 hr. • 15) Each well was washed twice with PBS (200 μl/well) containing skim milk (0.05%) and then washed twice with PBS (200 μl/well). • 16) Substrate solution (150 μl/well) for alkaline phosphatase was prepared by mixing of Tris-HCl (100 mM, pH 9.5), NaCl (100 mM), MgCl2 (5 mM) and p-nitrophenyl phosphate (6 mM) just before use. The substrate solution was transferred into each well of the plate, mixed by a plate mixer and then incubated at 25° C. for 1 hr until the color appears in the solution. • 17) The plate was set on a plate reader and the absorbance was measured at 405 nm. • 18) The inhibitory rate was calculated from the optical density (unit; OD) measured as follows. [formula]
# Table 4 summarized the comparison between inhibitory rates in the assay with the pre-incubation and those in the assay without the pre-incubation.
# [2] = target: T1, HCV RNA-dependent RNA polymerase; experiment: Time course of HCV RdRp inhibitory effect against pre-incubation time and temperature (Examinations 3 and 4); format: biochemical; conditions: for Influence of pre-incubation time on inhibitory effect (FIG. 5): pre-incubation time 0 to 180 min; for Influence of pre-incubation on inhibitory effect at 2° C., 20° C. and 25° C. (FIG. 6, FIG. 7): pre-incubation at any temperature
# Procedure: In the screening for HCV RNA-dependent RNA polymerase inhibitor, there is a dissociation of inhibitory effect as a different point between an assay method of the present invention and a prior assay method. […] Therefore, the influence of pre-incubation on the inhibitory value of enzyme inhibitor was determined. Using several compounds which evaluated RdRp inhibition in the prior assay method, the time course of HCV RdRp inhibitory effect was determined for 0 min, 15 min, 30 min, 45 min, 60 min, 90 min, 120 min, 150 min and 180 min as a pre-incubation time (FIG. 5).
# Influence of pre-incubation on inhibitory value of enzyme inhibitor was determined in Examination 3. The temperature of pre-incubation in Examination 3 was changed and the time course of inhibitory effect was determined at variant temperature of pre-incubation.
# Using several compounds, 3′-dUTP, compound I-1 and compound C, which evaluated RdRp inhibition in the prior assay method, the time course of HCV RdRp inhibitory effect was determined at 2° C., 20° C. and 25° C. as a pre-incubation temperature for 0 min, 20 min, 40 min, 60 min, 80 min, and 100 min as a pre-incubation time (FIG. 6, FIG. 7, FIG. 8).
Structure (SMILES),"Inhibitory rate, treatment of pre-incubation − [1]","Influence of pre-incubation on inhibitory effect at 2° C. (FIG. 8) ([2]; pre-incubation temperature 2° C., 0 to 100 min)","Influence of pre-incubation on inhibitory effect at 20° C. and 25° C. (FIG. 8) ([2]; pre-incubation temperature 20° C. and 25° C., 0 to 100 min)",Influence of pre-incubation time on inhibitory effect (FIG. 5) [2],"Influence of pre-incubation on inhibitory effect at 2° C., 20° C. and 25° C. (FIG. 6, FIG. 7) ([2]; 0 to 100 min)","inhibition at 0.5 µg/mL ([1]; read-out: Inhibitory rate, treatment of pre-incubation −)"
CCCCC1=N/C(=C\c2ccccc2OCC(=O)O)C(=O)N1Cc1ccc(-c2ccccc2-c2nnn[nH]2)cc1 [Compound C],87%,did not appear clear influence,inhibitory effect decreased greatly,inhibitory effect decreased with increasing pre-incubation time,,
"O=c1ccn([C@@H]2O[C@H](COP(=O)(O)OP(=O)(O)OP(=O)(O)O)C[C@H]2O)c(=O)[nH]1 [3′-dUTP, 3′-deoxyuridine triphosphate]",44%,,,not a large influence by pre-incubation,not influence by pre-incubation at any temperatures,
O=C(O)/C(O)=C/C(=O)c1cccc(O)c1 [Compound I-1],,,,,not influence by pre-incubation at any temperatures,59%
Cc1oc(-c2ccccc2)nc1CCOc1ccc(C=C2C(=O)NC(=O)NC2=O)cc1 [Compound A],87%,,,inhibitory effect decreased with increasing pre-incubation time,,
O=C1NC(=O)C(=Cc2ccc(OCCc3cccc4ccccc34)cc2)C(=O)N1 [Compound B],28%,,,inhibitory effect decreased with increasing pre-incubation time,,
